Tests used:
[1] = molecular target: human α7 nAChR (Homo sapiens, UniProt P36544); experiment: cell-based
[2] = system: DFP-induced seizure-like behaviors; details: mouse, in vivo
[3] = molecular target: native α7 nAChR in rat brain membranes (Rattus norvegicus, UniProt Q05941); experiment: biochemical; assay type: binding; details: for inhibition at 10 µM: read-out: Percent binding/inhibition, α7 receptor (selectivity study)
[4] = molecular target: muscle-type nAChR (Homo sapiens, UniProt P02708+P07510+Q07001); assay type: binding
[5] = molecular target: neuronal α4β2 nAChRs (Rattus norvegicus, UniProt P09483+P12390); experiment: biochemical; details: read-out: Percent binding/inhibition, neuronal α4β2
[6] = molecular target: T1, human 5HT3 receptor (Homo sapiens, UniProt P46098); experiment: biochemical; details: read-out: Percent binding/inhibition, 5HT3 receptor
T1 sequence (P46098 24-478): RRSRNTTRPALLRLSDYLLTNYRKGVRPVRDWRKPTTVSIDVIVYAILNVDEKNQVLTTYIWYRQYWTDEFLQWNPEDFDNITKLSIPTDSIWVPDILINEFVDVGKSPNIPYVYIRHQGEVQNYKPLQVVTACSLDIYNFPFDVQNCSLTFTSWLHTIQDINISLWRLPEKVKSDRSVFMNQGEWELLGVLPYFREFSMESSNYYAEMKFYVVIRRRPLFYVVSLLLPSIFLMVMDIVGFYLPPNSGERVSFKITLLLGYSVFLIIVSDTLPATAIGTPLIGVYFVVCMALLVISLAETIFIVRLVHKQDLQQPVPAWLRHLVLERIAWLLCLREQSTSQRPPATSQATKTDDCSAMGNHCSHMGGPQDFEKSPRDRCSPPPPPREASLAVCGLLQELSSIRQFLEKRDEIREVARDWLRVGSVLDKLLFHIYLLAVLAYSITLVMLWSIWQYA

[7] = male, C57Bl/6, mouse, in vivo, ip, 10 mg/kg

native α7 nAChR in rat brain membranes, sequence (Q05941 23-502): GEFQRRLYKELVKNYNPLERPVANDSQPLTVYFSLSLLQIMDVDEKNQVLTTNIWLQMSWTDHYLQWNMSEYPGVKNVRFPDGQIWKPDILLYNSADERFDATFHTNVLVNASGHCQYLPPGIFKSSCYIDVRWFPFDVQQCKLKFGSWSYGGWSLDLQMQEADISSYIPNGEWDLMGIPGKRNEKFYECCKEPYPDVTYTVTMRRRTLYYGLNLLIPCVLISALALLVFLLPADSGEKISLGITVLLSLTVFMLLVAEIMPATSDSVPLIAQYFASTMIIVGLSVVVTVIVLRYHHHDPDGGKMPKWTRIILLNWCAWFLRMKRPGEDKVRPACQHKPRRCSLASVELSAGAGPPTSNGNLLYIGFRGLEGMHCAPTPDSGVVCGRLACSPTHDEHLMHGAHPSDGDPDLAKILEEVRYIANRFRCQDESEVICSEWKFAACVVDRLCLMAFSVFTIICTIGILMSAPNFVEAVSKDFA
neuronal α4β2 nAChRs, sequence (P09483 31-630): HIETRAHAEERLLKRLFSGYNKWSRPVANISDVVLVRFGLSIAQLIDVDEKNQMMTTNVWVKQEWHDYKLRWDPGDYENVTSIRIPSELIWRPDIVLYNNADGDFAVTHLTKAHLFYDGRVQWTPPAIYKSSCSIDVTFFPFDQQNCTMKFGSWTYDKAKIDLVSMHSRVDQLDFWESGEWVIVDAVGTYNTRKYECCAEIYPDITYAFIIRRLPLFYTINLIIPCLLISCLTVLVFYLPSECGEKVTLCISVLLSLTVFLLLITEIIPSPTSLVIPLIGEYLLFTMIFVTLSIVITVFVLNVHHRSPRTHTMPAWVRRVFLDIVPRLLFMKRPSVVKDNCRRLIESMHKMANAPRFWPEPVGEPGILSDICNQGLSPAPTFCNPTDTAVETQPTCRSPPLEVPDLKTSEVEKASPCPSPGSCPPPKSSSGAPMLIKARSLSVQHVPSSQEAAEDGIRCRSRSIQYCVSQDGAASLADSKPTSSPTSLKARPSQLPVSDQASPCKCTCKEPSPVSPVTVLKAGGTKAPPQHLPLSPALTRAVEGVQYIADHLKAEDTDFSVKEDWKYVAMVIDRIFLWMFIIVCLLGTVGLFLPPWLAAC
neuronal α4β2 nAChRs, sequence (P12390 25-500): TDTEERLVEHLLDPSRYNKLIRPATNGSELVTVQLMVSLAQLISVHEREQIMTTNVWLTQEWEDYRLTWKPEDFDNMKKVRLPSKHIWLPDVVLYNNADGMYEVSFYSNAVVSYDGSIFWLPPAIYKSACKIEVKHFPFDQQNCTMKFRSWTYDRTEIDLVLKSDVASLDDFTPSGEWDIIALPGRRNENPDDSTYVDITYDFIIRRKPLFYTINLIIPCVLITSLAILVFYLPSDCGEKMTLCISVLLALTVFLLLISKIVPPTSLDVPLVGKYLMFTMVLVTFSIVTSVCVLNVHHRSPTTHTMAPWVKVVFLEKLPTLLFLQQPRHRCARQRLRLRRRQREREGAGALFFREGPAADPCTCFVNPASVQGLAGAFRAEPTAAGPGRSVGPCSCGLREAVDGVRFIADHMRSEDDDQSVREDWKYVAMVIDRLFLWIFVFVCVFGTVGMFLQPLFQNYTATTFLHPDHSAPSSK
human α7 nAChR, sequence (P36544 23-502): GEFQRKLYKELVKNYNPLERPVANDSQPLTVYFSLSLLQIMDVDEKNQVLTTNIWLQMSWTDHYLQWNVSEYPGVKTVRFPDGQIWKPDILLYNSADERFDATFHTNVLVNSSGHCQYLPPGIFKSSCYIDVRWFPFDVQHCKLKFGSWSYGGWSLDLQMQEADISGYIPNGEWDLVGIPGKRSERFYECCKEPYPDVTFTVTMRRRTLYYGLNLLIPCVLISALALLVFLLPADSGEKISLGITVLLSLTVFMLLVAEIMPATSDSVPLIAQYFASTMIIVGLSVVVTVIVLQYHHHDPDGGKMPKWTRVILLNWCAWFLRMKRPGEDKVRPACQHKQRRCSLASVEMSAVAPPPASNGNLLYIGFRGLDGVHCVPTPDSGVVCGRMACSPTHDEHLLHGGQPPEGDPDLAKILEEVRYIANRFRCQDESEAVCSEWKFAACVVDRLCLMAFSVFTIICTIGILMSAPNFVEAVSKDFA
muscle-type nAChR, sequence (P02708 21-457): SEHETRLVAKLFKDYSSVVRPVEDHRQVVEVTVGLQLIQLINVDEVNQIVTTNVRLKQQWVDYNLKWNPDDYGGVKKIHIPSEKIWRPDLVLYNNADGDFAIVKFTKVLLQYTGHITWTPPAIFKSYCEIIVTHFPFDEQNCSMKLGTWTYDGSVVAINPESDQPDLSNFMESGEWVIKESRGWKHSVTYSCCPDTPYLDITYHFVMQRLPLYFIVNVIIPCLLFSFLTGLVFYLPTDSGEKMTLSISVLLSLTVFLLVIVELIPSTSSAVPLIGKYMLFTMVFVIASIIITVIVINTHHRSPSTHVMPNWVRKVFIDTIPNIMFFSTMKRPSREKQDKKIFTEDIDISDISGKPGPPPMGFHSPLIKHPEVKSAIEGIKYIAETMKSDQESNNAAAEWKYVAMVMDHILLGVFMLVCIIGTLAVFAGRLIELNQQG
muscle-type nAChR, sequence (P07510 23-517): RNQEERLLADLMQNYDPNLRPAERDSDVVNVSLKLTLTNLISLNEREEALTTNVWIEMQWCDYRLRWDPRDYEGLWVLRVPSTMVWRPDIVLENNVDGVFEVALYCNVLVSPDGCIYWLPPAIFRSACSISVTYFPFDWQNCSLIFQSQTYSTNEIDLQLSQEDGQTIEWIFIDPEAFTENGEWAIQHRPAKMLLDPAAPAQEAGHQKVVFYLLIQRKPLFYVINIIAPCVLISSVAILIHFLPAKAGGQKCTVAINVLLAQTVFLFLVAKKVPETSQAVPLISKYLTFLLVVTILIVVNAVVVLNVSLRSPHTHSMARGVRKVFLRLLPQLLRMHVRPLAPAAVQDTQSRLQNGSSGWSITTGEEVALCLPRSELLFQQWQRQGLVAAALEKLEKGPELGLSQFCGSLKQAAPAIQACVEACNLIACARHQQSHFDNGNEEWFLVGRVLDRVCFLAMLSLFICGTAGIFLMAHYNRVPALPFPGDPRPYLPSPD
muscle-type nAChR, sequence (P11230 24-501, further chain): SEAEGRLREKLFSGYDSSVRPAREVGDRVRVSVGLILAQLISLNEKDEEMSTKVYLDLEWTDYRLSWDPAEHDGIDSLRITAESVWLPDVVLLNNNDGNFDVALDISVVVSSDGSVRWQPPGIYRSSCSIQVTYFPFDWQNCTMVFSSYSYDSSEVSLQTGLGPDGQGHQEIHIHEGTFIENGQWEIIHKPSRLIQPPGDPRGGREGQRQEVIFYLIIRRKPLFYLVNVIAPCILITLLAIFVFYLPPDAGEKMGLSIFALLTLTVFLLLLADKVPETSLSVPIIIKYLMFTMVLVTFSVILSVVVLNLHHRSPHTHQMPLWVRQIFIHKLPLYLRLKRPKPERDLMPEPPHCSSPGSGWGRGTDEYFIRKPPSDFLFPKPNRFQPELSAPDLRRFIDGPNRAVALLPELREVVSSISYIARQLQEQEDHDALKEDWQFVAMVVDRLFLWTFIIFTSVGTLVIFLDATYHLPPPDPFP
muscle-type nAChR, sequence (Q07001 22-517): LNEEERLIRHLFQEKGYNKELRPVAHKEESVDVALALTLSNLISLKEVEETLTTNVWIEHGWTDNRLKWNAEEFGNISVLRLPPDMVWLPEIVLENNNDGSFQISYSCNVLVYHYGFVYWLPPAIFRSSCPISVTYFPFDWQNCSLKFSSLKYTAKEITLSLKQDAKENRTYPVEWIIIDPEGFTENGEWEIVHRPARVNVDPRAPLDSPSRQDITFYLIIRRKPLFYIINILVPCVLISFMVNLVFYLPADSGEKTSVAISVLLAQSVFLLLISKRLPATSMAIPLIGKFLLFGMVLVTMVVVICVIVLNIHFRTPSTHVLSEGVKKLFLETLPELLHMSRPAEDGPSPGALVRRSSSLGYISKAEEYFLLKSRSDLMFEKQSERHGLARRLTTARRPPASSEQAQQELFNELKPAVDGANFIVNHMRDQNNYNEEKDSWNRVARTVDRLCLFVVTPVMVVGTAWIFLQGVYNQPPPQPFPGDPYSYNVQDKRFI

Row | SMILES | IC50 [1] [µM] | Normalized % neuroprotection [2] [%] | Normalized % seizure [2] [%] | Seizure score (mean ± SD) [2] | IC50 [3] [µM] | inhibition at 10 µM [3] [%] | binding to the muscle-type nAChR [4] | inhibition at 10 µM [5] [%] | inhibition at 10 µM [6] [%] | concentration in brain [7] [µM] | binding affinity to the α7 nAChR (in words) [3]
1 | CCCc1c(C(=O)NC2CCN(Cc3ccccc3)CC2)cnn1-c1ccccc1 [compound 8] | 18.9 | 91.2 | 8.8 | 0.8 ± 1.3 | 2.9 | 82.5 | no detectable binding | 1.3 | 14.3 | 9 | 
2 | CN(CC1CCN(Cc2ccccc2)CC1)C(=O)c1cn(Cc2ccccc2Cl)nn1 [compound 7i] | 3.8 | 93.4 | 6.6 | 0.6 ± 1.3 |  |  |  |  |  |  | 
3 | O=C(NCC1CCN(Cc2ccccc2)CC1)c1cn(Cc2cccc(Cl)c2)nn1 [compound 7] |  |  |  |  |  | 82.5 | no detectable binding | 18.8 | 8.4 |  | 
4 | CCCc1c(C(=O)NC2CCN(C)CC2)cnn1-c1ccccc1 [8h] |  |  |  |  |  |  |  |  |  |  | completely abolished the binding affinity
5 | CCCc1c(C(=O)NC2CCNCC2)cnn1-c1ccccc1 [8i] |  |  |  |  |  |  |  |  |  |  | completely abolished the binding affinity

Source: paper PMC3000800 (Bioorganic & medicinal chemistry letters, 2010)
